Test results as given in patent US12319703B2, “Macrocyclic fused pyrazoles as Mcl-1 inhibitors” (ASCENTAGE PHARMA (SUZHOU) CO., LTD., priority 2019, dated 2025).
Read-outs that look alike come from different tables or passages of the source.

Key:
[1] = biological target: T1, Mcl-1 protein (residues 171-323) (Homo sapiens, UniProt Q07820); assay: Inhibition of Mcl-1 by fluorescence polarization (FP) competitive binding assay; conditions: FAM-Bid tracer 2 nM, Mcl-1 20 nM, 30 min
T1 construct: Tag-free Mcl-1 protein (residues 171-323) was used in the FP assay
T1 sequence (Q07820 171-323): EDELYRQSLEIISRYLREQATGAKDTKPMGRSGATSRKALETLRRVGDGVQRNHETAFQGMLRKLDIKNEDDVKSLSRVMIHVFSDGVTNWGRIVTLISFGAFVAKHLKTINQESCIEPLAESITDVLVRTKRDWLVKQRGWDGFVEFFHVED
Experimental: Inhibition of Mcl-1 by Fluorescence Polarization (FP) Assay.
The method used a fluorescein labelled peptide (FAM-Bid) which binds to the Mcl-1 protein leading to an increased anisotropy measured in milli-polarization (mP) values using a plate reader.
A 10-points serial dilution of each compound was prepared in DMSO and 5 μL solution was transferred into flat bottomed, 96-well back plate (final DMSO concentration 5%). 120 μL of Buffer (PBS, 0.01% BGG (Sigma Cat. #SRE0011), 0.01% Triton X-100), containing the Fluorescein labelled peptide (Final concentration 2 nM) and Mcl-1 protein (final concentration 20 nM) was then added. […] 10-points dose response curves were plotted with GraphPad software using Sigmoidal Dose-Response Model and the IC50 values were determined by nonlinear regression fitting of the competition curves.

OPM-2 cells = assay: Cell viability assay (OPM-2 cells), CCK-8; type: cell-based; conditions: WST, 5% FBS, read-out: OPM2 (WST, 5% FBS)
Experimental: Cell Viability Assay (OPM-2 Cells)
OPM-2 cells were obtained from Deutsche Sammlung von Mikroorganismen und Zellkulturen GmbH (DSMZ). […]
The effect of representative Compounds of the Disclosure on cell viability was determined using Cell Counting Kit-8 (CCK-8) assay (Shanghai Life iLab Bio Technology) according to the manufacturer's instructions. Each tested compound was serially diluted in culture medium, 100 μL of the compound dilution was added into 96-well plates. 100 μL of an OPM-2 cell suspension (20000 cells/well) in culture medium were seeded into the corresponding well of the plate and the cells were incubated at 37° C. in an atmosphere of 5% CO2 for 24 hours. In the next day, 20 μL of CCK-8 solution was added to each well of the plate and incubated for 4 hours.
The plates were read at 450 nm on the microplate spectrophotometer (SpectraMax plus 384, Molecular devices). The readings were normalized to the vehicle cells, and the IC50 was calculated by nonlinear regression analysis using GraphPad Prism 6 software.

NCI-H929 cells = assay: Cell viability assay (NCI-H929 cells), CCK-8; type: cell-based; conditions: WST, 5% FBS
Experimental: Cell Viability Assay (NCI-H929 Cells)
NCI-H929 cells were obtained from American Type Culture Collection (ATCC). Cells were maintained in the recommended culture medium (RPMI 1640) with 10% FBS and 0.05 mM BME at 37° C. and an atmosphere of 5% CO2.
The effect of Compounds on cell viability was determined using Cell Counting Kit-8 (CCK-8) assay according to the manufacturer's instructions. 95 μL of NCI-H929 cell suspension (20000 cells/well) in culture medium were seeded into 96-well plates and cultured 4 hrs. Each tested compound was serially diluted in DMSO, then 5 μL of the compound or DMSO was diluted in 95 μL medium once more. At last, 5 μL of the compound dilution was added to the corresponding well of the cell plate. After the addition of the tested compound, the cells were incubated at 37° C. in an atmosphere of 5% CO2 for 24 hrs. At the end, 10 μL of CCK-8 solution was added to each well of the plate and incubated for 1-4 hours. The plates were read at 450 nm on the microplate reader (BioTek Synergy 1MF). The readings were normalized to the vehicle cells, and the IC50 was calculated by nonlinear regression analysis using GraphPad Prism 6 software.

Structure (SMILES) | IC50 [1] [nM] | IC50 (NCI-H929 cells; Homo sapiens, NCI-H929, 24 h) [nM] | IC50 (NCI-H929 cells; 24 h) [nM] | IC50 (OPM-2 cells; Homo sapiens, OPM-2, 24 h) [nM] | IC50 (OPM-2 cells; 24 h) [nM]
Cc1c2c(nn1C)CN(CCO)Cc1cc(n(C)n1)CSc1cc(c3ccccc3c1)OCCCc1c(C(=O)O)n(C)c3c-2c(Cl)ccc13 [compound 50, (Z)-1^6-chloro-4-(2-hydroxyethyl)-1^1,2^1,2^5,6^1-tetramethyl-1^1H,2^1H,6^1H-10-oxa-8-thia-4-aza-1(7,3)-indola-2(4,3), 6(3,5)-dipyrazola-9(3,1)-naphthalenacyclotridecaphane-1^2-carboxylic acid] | 20 | 66 | – | 388 | –
Cn1nc2cc1CSc1cc(c3ccccc3c1)OCCCc1c(C(=O)O)n(C)c3c(c(Cl)ccc13)-c1c(nn3c1CCC3)CSC2 [compound 1, (Z)-1^6-chloro-1^1,6^1-dimethyl-2^5,2^6-dihydro-1^1H,2^4H,6^1H-10-oxa-4,8-dithia-1(7,3)-indola-2(3,2)-pyrrolo[1,2-b]pyrazola-6(3,5)-pyrazola-9(3,1)-naphthalenacyclotridecaphane-1^2-carboxylic acid] | 15 | – | 123 | – | 437
Cn1nc2nc1CSc1cc(c3ccccc3c1)OCCCc1c(C(=O)O)n(C)c3c(c(Cl)ccc13)-c1c(nn3c1CCC3)CSC2 [compound 13, (Z)-1^6-chloro-1^1,6^1-dimethyl-2^5,2^6-dihydro-1^1H,2^4H,6^1H-10-oxa-4,8-dithia-1(7,3)-indola-2(3,2)-pyrrolo[1,2-b]pyrazola-6(3,5)-triazola-9(3,1)-naphthalenacyclotridecaphane-1^2-carboxylic acid] | 14.6 | 4300 | – | > 10000 | –
Cn1c(C(=O)O)c2c3ccc(Cl)c(c31)-c1c(nn3c1CCC3)CSCc1ccc(cn1)CSc1cc(c3ccc(F)cc3c1)OCCC2 [compound 31, 1^6-chloro-9^6-fluoro-1^1-methyl-2^5,2^6-dihydro-1^1H,2^4H-10-oxa-4,8-dithia-1(7,3)-indola-2(3,2)-pyrrolo[1,2-b]pyrazola-6(2,5)-pyridina-9(3,1)-naphthalenacyclotridecaphane-1^2-carboxylic acid] | 14 | 63 | – | 125 | –
Cn1nc2cc1CSc1cc(c3ccc(F)cc3c1)OCCCc1c(C(=O)O)n(C)c3c(c(Cl)ccc13)-c1c(nn3c1CCC3)CN(S(=O)(=O)Cc1ccccc1)C2 [compound 41, (Z)-4-(benzylsulfonyl)-1^6-chloro-9^6-fluoro-1,6^1-dimethyl-2^5,2^6-dihydro-1^1H,2^4H,6^1H-10-oxa-8-thia-4-aza-1(7,3)-indola-2(3,2)-pyrrolo[1,2-b]pyrazola-6(3,5)-pyrazola-9(3,1)-naphthalenacyclotridecaphane-1^2-carboxylic acid] | 12 | 366 | – | 327 | –
Cn1nc2cc1CSc1cc(c3ccc(F)cc3c1)OCCCc1c(C(=O)O)n(C)c3c(c(Cl)ccc13)-c1c(nn3c1COCC3)CN(S(=O)(=O)C1CC1)C2 [compound 43, (Z)-1^6-chloro-4-(cyclopropylsulfonyl)-9^6-fluoro-1^1,6^1-dimethyl-2^6,2^7-dihydro-1^1H,2^4H,6^1H-10-oxa-8-thia-4-aza-2(3,2)-pyrazolo[5,1-c][1,4]oxazina-1(7,3)-indola-6(3,5)-pyrazola-9(3,1)-naphthalenacyclotridecaphane-1^2-carboxylic acid] | 12 | 190 | – | 451 | –
Cn1nc2cc1CSc1cc(c3ccccc3c1)OCCCc1c(C(=O)O)n(C)c3c(c(Cl)ccc13)-c1c(nn3c1CCCC3)CSC2 [compound 20, (Z)-1^6-chloro-1^1,6^1-dimethyl-2^4,2^5,2^6,2^7-tetrahydro-1^1H,6^1H-10-oxa-4,8-dithia-2(3,2)-pyrazolo[1,5-a]pyridina-1(7,3)-indola-6(3,5)-pyrazola-9(3,1)-naphthalenacyclotridecaphane-1^2-carboxylic acid] | 15.2 | 49 | – | 174 | –
Cn1nc2cc1CSc1cc(c3ccccc3c1)OCCCc1c(C(=O)O)n(C)c3c(c(Cl)ccc13)-c1c(nn3c1CN(S(C)(=O)=O)CC3)CSC2 [compound 25, (Z)-1^6-chloro-1^1,6^1-dimethyl-2^5-(methylsulfonyl)-2^4,2^5,2^6,2^7-tetrahydro-1^1H,6^1H-10-oxa-4,8-dithia-2(3,2)-pyrazolo[1,5-a]pyrazina-1(7,3)-indola-6(3,5)-pyrazola-9(3,1)-naphthalenacyclotridecaphane-1^2-carboxylic acid] | 14.9 | 4970 | – | 9050 | –

Further compounds by falling IC50 [1], results first:

IC50 [1] [nM] | IC50 (NCI-H929 cells; Homo sapiens, NCI-H929, 24 h) [nM] | IC50 (NCI-H929 cells; 24 h) [nM] | Structure (SMILES) | IC50 (OPM-2 cells; Homo sapiens, OPM-2, 24 h) [nM] | IC50 (OPM-2 cells; 24 h) [nM]
16 | 215 | – | CC(=O)N1Cc2cc(n(C)n2)CSc2cc(c3ccccc3c2)OCCCc2c(C(=O)O)n(C)c3c(c(Cl)ccc23)-c2c(nn(C)c2C)C1 [compound 35, (Z)-4-acetyl-1^6-chloro-1^1,2^1,2^5,6^1-tetramethyl-1^1H,2^1H,6^1H-10-oxa-8-thia-4-aza-1(7,3)-indola-2(4,3),6(3,5)-dipyrazola-9(3,1)-naphthalenacyclotridecaphane-1^2-carboxylic acid] | 763 | –
16 | 250 | – | Cn1nc2cc1CSc1cc(c3ccc(Cl)cc3c1)OCCCc1c(C(=O)O)n(C)c3c(c(Cl)ccc13)-c1c(nn3c1COCC3)CSC2 [compound 19, (Z)-1^6,9^6-dichloro-1^1,6^1-dimethyl-2^6,2^7-dihydro-1^1H,2^4H,6^1H-10-oxa-4,8-dithia-2(3,2)-pyrazolo[5,1-c][1,4]oxazina-1(7,3)-indola-6(3,5)-pyrazola-9(3,1)-naphthalenacyclotridecaphane-1^2-carboxylic acid] | 384 | –
15.9 | 55 | – | Cn1nc2cc1CSc1cc(c3ccc(F)cc3c1)OCCCc1c(C(=O)O)n(C)c3c(c(Cl)ccc13)-c1c(nn3c1CCCCC3)CSC2 [compound 28, (Z)-1^6-chloro-9^6-fluoro-1^1,6^1dimethyl-2^5,2^6,2^7,2^8-tetrahydro-1^1H,2^4H,6^1H-10-oxa-4,8-dithia-2(3,2)-pyrazolo[1,5-a]azepina-1(7,3)-indola-6(3,5)-pyrazola-9(3,1)-naphthalenacyclotridecaphane-1^2-carboxylic acid] | 184 | –
14.9 | 158 | – | Cc1cc2ccc1CSCc1nn3c(c1-c1c(Cl)ccc4c(c(C(=O)O)n(C)c14)CCCOc1cc(cc4cc(F)ccc14)SC2)CCC3 [compound 29, 1^6-chloro-9^6-fluoro-1^1,6^2-dimethyl-2^5,2^6-dihydro-1^1H,2^4H-10-oxa-4,8-dithia-1(7,3)-indola-2(3,2)-pyrrolo[1,2-b]pyrazola-9(3,1)-naphthalena-6(1,4)-benzenacyclotridecaphane-1^2-carboxylic acid] | 348 | –
12 | 61 | – | Cc1c2c(nn1C)CN(S(=O)(=O)C(F)(F)F)Cc1cc(n(C)n1)CSc1cc(c3ccc(F)cc3c1)OCCCc1c(C(=O)O)n(C)c3c-2c(Cl)ccc13 [compound 46, (Z)-1^6-chloro-9^6-fluoro-1^1,2^1,2^5,6^1-tetramethyl-4-((trifluoromethyl)sulfonyl)-1^1H,2^1H,6^1H-10-oxa-8-thia-4-aza-1(7,3)-indola-2(4,3),6(3,5)-dipyrazola-9(3,1)-naphthalenacyclotridecaphane-1^2-carboxylic acid] | 49 | –
10.9 | 81 | – | Cn1nc2cc1CSc1cc(c3ccccc3c1)OCCCc1c(C(=O)O)n(C)c3c(c(Cl)ccc13)-c1c(nn3c1COCC3)CSC2 [compound 12, (Z)-1^6-chloro-1^1,6^1-dimethyl-2^6,2^7-dihydro-1^1H,2^4H,6^1H-10-oxa-4,8-dithia-2(3,2)-pyrazolo[5,1-c][1,4]oxazina-1(7,3)-indola-6(3,5)-pyrazola-9(3,1)-naphthalenacyclotridecaphane-1^2-carboxylic acid] | 532 | –
